According to US4008233A (priority 1972, dated 1977):
Where two headings read alike, the source gives them in different places.

Assays:
[1] = set-up: species or system male mice; conditions: mouse, in vivo
[2] = set-up: species or system male white mice; conditions: mouse, in vivo
[3] = set-up: species or system male rats (SIV; printed "rate"); conditions: rat, in vivo
in vivo = conditions: mouse
[4] = set-up: species or system male mice (NMRI); conditions: in vivo
[5] = set-up: species or system mice and rats; conditions: in vivo

In the case of `CCOC(=O)[C@]1(c2ccccc2)C=C[C@@H](N2CCN(c3ccccc3)CC2)CC1` (relative stereo) [4r-(4'-Phenyl-piperazino-1')-1c-phenyl-1t-cyclohexene-(2)], the “Analgesia ED 50 Phenyl-p-Quinone Writhing Test” value ([1]; po) is reported as over 50.0 mg/kg, the “Reduction of Spontaneous Motility by % Photocage” value (from here on “Reduction … by % Photocage”) ([2]; 10 mg/kg) is reported as 34% and the “Reduction … by % Photocage” value ([2]; sc, 5 mg/kg) is reported as “no effect”. For the same compound, the “Decrease in Body Temperature in ° C” value ([3]; 200 mg/kg) was -1.7 °C and the LD50 at 48 h (in vivo; po) was about 1600 mg/kg.
For `CCOC(=O)[C@]1(c2ccccc2)C=C[C@@H](N2CCC(c3ccccc3)CC2)CC1` (relative stereo) [4r-(4'-Phenyl-piperidino-1')-1c-phenyl-1t-ethoxycarbonyl-cyclohexene-(2)], the “Analgesia ED 50 Phenyl-p-Quinone Writhing Test” value ([1]; po) was “ca. 75.0 mg/kg”, the “Aggressive Mouse ED 50” value [4] was “no effect” and the “Reduction … by % Photocage” value ([2]; 100 mg/kg) was 79%. The “Decrease in Body Temperature in ° C” value [3] was “no effect” and the LD50 at 48 h (in vivo; po) was 850 mg/kg.
With `CCOC(=O)[C@]1(c2ccccc2)C=C[C@@H](N2CCCCC2)CC1` (relative stereo) [4r-(Piperidino-1')-1c-phenyl-1t-ethoxycarbonyl-cyclohexene-(2)] the “Analgesia ED 50 Phenyl-p-Quinone Writhing Test” value ([1]; sc) was over 20.0 mg/kg, the “Aggressive Mouse ED 50” value ([4]; sc) was “no effect” and the “Reduction … by % Photocage” value ([2]; sc, 40 mg/kg) was 11%. The “Decrease in Body Temperature in ° C” value ([3]; sc, 50 mg/kg) was -0.1 °C and the LD50 at 48 h (in vivo; sc) was 390 mg/kg.
In the case of `CCOC(=O)[C@]1(c2ccccc2)C=C[C@@H](N(C)C)CC1` (relative stereo) [4r-Dimethyl-amino-1c-phenyl-1t-ethoxycarbonyl-cyclohexene-(2)], the “Analgesia ED 50 Phenyl-p-Quinone Writhing Test” value ([1]; po) is reported as 118.0 mg/kg, the “Analgesia ED 50 Phenyl-p-Quinone Writhing Test” value ([1]; sc) is reported as 14.6 mg/kg and the “Aggressive Mouse ED 50” value ([4]; sc) is reported as “no effect”. The “Reduction … by % Photocage” value ([2]; sc, 5 mg/kg) was 0%, the “Reduction … by % Photocage” value ([2]; sc, 20 mg/kg) was 25% and the “Decrease in Body Temperature in ° C” value ([3]; sc) was “no effect”. The LD50 at 48 h (in vivo; po) was 490 mg/kg and the LD50 at 48 h (in vivo; sc) was 136 mg/kg.
In the case of `CCOC(=O)[C@]1(c2ccccc2)C=C[C@@H](N2CCN(c3ccccc3OC)CC2)CC1` (relative stereo) [4r-[4'-(2-Methoxy-phenyl)piperazino-1']-1c-phenyl-1t-ethoxycarbonyl-cyclohexene-(2)], the “Analgesia ED 50 Phenyl-p-Quinone Writhing Test” value ([1]; po) is reported as over 150.00 mg/kg, the “Reduction … by % Photocage” value ([2]; 50 mg/kg) is reported as 17% and the LD50 at 48 h (in vivo; po) is reported as over 1600 mg/kg.
With `CCOC(=O)[C@]1(c2ccccc2)C=C[C@H](N(C)C)CC1` (relative stereo) [Example 1, 4r-Dimethylamino-1t-phenyl-1c-ethoxycarbonyl-cyclohexene-(2)] the “Analgesic potency/activity (in words)” value [1] was “more potent analgesics than (±)-3r-dimethylamino-4c-phenyl-4t-ethoxycarbonyl-cyclohexene-(1) (Valoron ^R), a positional isomer of the former and Dolantin ^R”, the “Analgesia ED 50 Phenyl-p-Quinone Writhing Test” value ([1]; po) was 13.6 mg/kg and the “Analgesia ED 50 Phenyl-p-Quinone Writhing Test” value ([1]; sc) was 3.0 mg/kg. For the same compound, the “Aggressive Mouse ED 50” value ([4]; sc, 30 min) was 4.0 mg/kg, the “Reduction … by % Photocage” value ([2]; sc, 5 mg/kg) was 38% and the “Reduction … by % Photocage” value ([2]; sc, 10 mg/kg) was 82%. For the same compound, the “Decrease in Body Temperature in ° C” value ([3]; sc, 20 mg/kg) was -1.4 °C, the LD50 at 48 h (in vivo; po) was 297 mg/kg and the LD50 at 48 h (in vivo; sc) was 155 mg/kg.
With `CCOC(=O)[C@]1(c2ccccc2)C=C[C@H](N2CCCCC2)CC1` (relative stereo) [Example 2, 4r-(Piperidino-1')-1t-phenyl-1c-ethoxycarbonyl-cyclohexene-(2)] the “Analgesia ED 50 Phenyl-p-Quinone Writhing Test” value ([1]; sc) was 5.3 mg/kg, the “Aggressive Mouse ED 50” value ([4]; sc, 30 min) was 8.0 mg/kg and the “Reduction … by % Photocage” value ([2]; sc, 10 mg/kg) was 93%. For the same compound, the “Decrease in Body Temperature in ° C” value ([3]; sc, 25 mg/kg) was -1.6 °C and the LD50 at 48 h (in vivo; sc) was 150 mg/kg.
With `CCOC(=O)[C@]1(c2ccccc2)C=C[C@H](N2CCC(c3ccccc3)CC2)CC1` (relative stereo) [Example 3, 4r-(4'-Phenylpiperidino-1')-1t-phenyl-1c-ethoxycarbonylcyclohexene-(2)] the “Analgesia ED 50 Phenyl-p-Quinone Writhing Test” value ([1]; po) was 10.0 mg/kg, the “Aggressive Mouse ED 50” value ([4]; po, 30 min) was 30 mg/kg and the “Reduction … by % Photocage” value ([2]; 25 mg/kg) was 91%. For the same compound, the “Decrease in Body Temperature in ° C” value ([3]; 50 mg/kg) was -0.5 °C and the LD50 at 48 h (in vivo; po) was 800 mg/kg.
For `CCOC(=O)[C@]1(c2ccccc2)C=C[C@H](N2CCN(c3ccccc3OC)CC2)CC1` (relative stereo) [Example 4, 4r-[4'-(2-Methoxyphenyl)piperazino-1']-1t-phenyl-1c-ethoxycarbonyl-cyclohexene-(2)], the “Analgesia ED 50 Phenyl-p-Quinone Writhing Test” value ([1]; po) was 50.0 mg/kg, the “Reduction … by % Photocage” value ([2]; 50 mg/kg) was 86% and the LD50 at 48 h (in vivo; po) was about 2000 mg/kg.
For `CCOC(=O)[C@]1(c2ccccc2)C=C[C@H](N2CCN(c3ccccc3)CC2)CC1` (relative stereo) [Example 5, 4r-(4'-Phenylpiperazino-1')-1t-phenyl-1c-ethoxycarbonylcyclohexene-(2)], the “Analgesia ED 50 Phenyl-p-Quinone Writhing Test” value ([1]; po) was 25.0 mg/kg, the “Aggressive Mouse ED 50” value ([4]; po, 30 min) was 25 mg/kg and the “Reduction … by % Photocage” value ([2]; 10 mg/kg) was 59%. The “Reduction … by % Photocage” value ([2]; 50 mg/kg) was 94%, the “Reduction … by % Photocage” value ([2]; sc, 5 mg/kg) was 71% and the “Decrease in Body Temperature in ° C” value ([3]; 100 mg/kg) was -2.6 °C. It also gave an LD50 at 48 h (in vivo; po) of 1600 mg/kg.
In the case of `CCOC(=O)C1(c2ccccc2)CCN(C)CC1` [Dolantin, Ethyl 1-methyl 4-phenyl-piperidin-4-carboxylate], the “Analgesia ED 50 Phenyl-p-Quinone Writhing Test” value ([1]; po) is reported as 28.5 mg/kg, the “Analgesia ED 50 Phenyl-p-Quinone Writhing Test” value ([1]; sc) is reported as 6.3 mg/kg and the “Neuroleptic activity (in words)” value [5] is reported as “no significant neuroleptic activity”. The “Aggressive Mouse ED 50” value [4] was “no effect”, the “Aggressive Mouse ED 50” value ([4]; sc, 30 min) was over 15 mg/kg and the “Reduction … by % Photocage” value [2] was “no effect”. For the same compound, the “Reduction … by % Photocage” value ([2]; sc, 15 mg/kg) was 30%, the “Decrease in Body Temperature in ° C” value [3] was “no effect” and the “Decrease in Body Temperature in ° C” value ([3]; sc) was “no effect”. For the same compound, the LD50 at 48 h (in vivo; po) was 252 mg/kg and the LD50 at 48 h (in vivo; sc) was 154 mg/kg.
